Data from publication PMC10698032, “A monoacylglycerol lipase inhibitor showing therapeutic efficacy in mice without central side effects or dependence” (Nature Communications, 2023).

Assays:
[1] = molecular target: T1, MAGL (monoacylglycerol lipase) (Homo sapiens, UniProt Q99685, K36A/L169S/L176S); assay: X-ray co-crystal structure (crystal soaking), […] Å; type: binding
T1 construct: gene MGLL; tag-free hMAGL (K36A, L169S, L176S), His6-TEV tag cleaved

5-HT transporter (h) = molecular target: T2, 5-HT transporter (h) (Homo sapiens, UniProt P31645); assay: biochemical; parameters: CEREP off-target panel, radioligand binding, inhibition of control specific binding; settings: read-out: % Inhibition of Control Specific Binding, Mean
T2 construct: gene SLC6A4
T2 sequence (P31645 whole entry): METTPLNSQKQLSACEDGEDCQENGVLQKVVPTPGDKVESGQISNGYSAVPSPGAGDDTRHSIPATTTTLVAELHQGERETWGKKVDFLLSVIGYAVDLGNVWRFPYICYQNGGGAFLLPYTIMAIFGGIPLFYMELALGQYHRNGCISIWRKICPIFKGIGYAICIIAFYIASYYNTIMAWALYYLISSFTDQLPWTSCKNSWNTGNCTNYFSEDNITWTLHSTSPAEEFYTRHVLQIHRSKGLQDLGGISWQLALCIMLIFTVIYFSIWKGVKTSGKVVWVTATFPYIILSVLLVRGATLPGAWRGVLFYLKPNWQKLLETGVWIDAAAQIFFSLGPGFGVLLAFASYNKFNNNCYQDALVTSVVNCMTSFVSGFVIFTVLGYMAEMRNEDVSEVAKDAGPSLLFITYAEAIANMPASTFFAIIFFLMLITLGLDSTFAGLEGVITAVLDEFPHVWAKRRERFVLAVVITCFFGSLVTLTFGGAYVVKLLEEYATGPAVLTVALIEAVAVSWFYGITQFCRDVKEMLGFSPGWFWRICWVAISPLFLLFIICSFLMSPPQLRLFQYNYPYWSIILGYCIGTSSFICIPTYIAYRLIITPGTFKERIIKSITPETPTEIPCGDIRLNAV

[2] = molecular target: T3, Potassium Channel hERG (human) (Homo sapiens, UniProt Q12809); assay: in vitro; parameters: CEREP off-target panel, radioligand binding, inhibition of control specific binding; settings: read-out: % Inhibition of Control Specific Binding, Mean
T3 construct: gene KCNH2
Excerpt: Mass spectrometry (MS)-based chemical proteomics experiments emulated these findings (Fig. 3d).

[3] = molecular target: T4, 5-HT1A(h) (agonist radioligand) (Homo sapiens, UniProt P08908); assay: biochemical; parameters: CEREP off-target panel, radioligand binding, inhibition of control specific binding; settings: read-out: % Inhibition of Control Specific Binding, Mean
T4 construct: gene HTR1A; agonist radioligand

[4] = molecular target: T5, A2A(h) (agonist radioligand)` (Homo sapiens, UniProt P29274); assay: biochemical; parameters: CEREP off-target panel, radioligand binding, inhibition of control specific binding; settings: read-out: % Inhibition of Control Specific Binding, Mean
T5 construct: gene ADORA2A; agonist radioligand

[5] = molecular target: T6, AR(h) (agonist radioligand) (Homo sapiens, UniProt P10275); assay: biochemical; parameters: CEREP off-target panel, radioligand binding, inhibition of control specific binding; settings: read-out: % Inhibition of Control Specific Binding, Mean
T6 construct: agonist radioligand
T6 sequence (P10275 whole entry): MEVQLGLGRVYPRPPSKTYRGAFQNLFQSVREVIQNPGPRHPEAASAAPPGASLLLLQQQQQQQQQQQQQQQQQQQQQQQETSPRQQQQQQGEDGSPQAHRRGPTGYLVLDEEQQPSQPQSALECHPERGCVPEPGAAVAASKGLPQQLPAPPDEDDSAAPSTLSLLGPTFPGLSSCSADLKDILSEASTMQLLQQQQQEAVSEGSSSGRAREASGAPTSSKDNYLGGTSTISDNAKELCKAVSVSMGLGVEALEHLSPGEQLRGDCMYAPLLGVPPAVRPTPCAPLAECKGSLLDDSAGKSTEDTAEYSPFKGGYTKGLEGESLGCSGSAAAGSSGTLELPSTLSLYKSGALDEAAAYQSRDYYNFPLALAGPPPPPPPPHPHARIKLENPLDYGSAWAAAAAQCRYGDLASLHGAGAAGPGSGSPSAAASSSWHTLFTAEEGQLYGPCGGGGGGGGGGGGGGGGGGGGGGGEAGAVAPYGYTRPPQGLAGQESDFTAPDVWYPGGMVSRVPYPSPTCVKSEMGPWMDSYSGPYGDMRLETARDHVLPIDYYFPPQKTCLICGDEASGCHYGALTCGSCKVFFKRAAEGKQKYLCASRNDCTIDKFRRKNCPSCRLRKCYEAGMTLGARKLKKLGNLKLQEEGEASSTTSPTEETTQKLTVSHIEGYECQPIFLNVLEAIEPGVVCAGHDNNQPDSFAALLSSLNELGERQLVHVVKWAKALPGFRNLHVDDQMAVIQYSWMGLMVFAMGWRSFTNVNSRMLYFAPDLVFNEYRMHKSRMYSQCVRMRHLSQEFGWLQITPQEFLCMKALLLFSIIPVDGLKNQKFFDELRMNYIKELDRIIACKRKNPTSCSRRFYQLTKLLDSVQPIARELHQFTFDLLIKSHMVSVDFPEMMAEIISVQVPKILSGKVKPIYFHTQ

[6] = molecular target: T7, CB2(h) (agonist radioligand) (Homo sapiens, UniProt P34972); assay: biochemical; parameters: CEREP off-target panel, radioligand binding, inhibition of control specific binding; settings: read-out: % Inhibition of Control Specific Binding, Mean
T7 construct: gene CNR2; agonist radioligand

[7] = molecular target: T8, CCK1 (CCKA) (h) (agonist radioligand) (Homo sapiens, UniProt P32238); assay: biochemical; parameters: CEREP off-target panel, radioligand binding, inhibition of control specific binding; settings: read-out: % Inhibition of Control Specific Binding, Mean
T8 construct: gene CCKAR; agonist radioligand

[8] = molecular target: T9, D1(h) (antagonist radioligand) (Homo sapiens, UniProt P21728); assay: biochemical; parameters: CEREP off-target panel, radioligand binding, inhibition of control specific binding; settings: read-out: % Inhibition of Control Specific Binding, Mean
T9 construct: gene DRD1; antagonist radioligand

[9] = molecular target: T10, D2S(h) (agonist radioligand) (Homo sapiens, UniProt P14416); assay: biochemical; parameters: CEREP off-target panel, radioligand binding, inhibition of control specific binding; settings: read-out: % Inhibition of Control Specific Binding, Mean
T10 construct: gene DRD2; short isoform (D2S), agonist radioligand
T10 sequence (P14416 whole entry, canonical isoform): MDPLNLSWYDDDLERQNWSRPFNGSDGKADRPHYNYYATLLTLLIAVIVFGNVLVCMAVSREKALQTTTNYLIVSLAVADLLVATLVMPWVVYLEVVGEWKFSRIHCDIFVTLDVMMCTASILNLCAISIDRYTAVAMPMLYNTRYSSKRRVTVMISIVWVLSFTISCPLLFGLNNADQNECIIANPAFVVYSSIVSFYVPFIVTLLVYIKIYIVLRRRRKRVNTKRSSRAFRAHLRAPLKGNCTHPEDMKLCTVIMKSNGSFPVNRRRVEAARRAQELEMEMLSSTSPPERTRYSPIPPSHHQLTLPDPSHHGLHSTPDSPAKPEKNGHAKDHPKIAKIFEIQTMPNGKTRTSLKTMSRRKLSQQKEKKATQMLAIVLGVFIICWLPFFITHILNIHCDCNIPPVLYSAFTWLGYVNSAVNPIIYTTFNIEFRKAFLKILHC

[10] = molecular target: T11, ETA(h) (agonist radioligand) (Homo sapiens, UniProt P25101); assay: biochemical; parameters: CEREP off-target panel, radioligand binding, inhibition of control specific binding; settings: read-out: % Inhibition of Control Specific Binding, Mean
T11 construct: gene EDNRA; agonist radioligand

[11] = molecular target: T12, M1(h) (antagonist radioligand) (Homo sapiens, UniProt P11229); assay: biochemical; parameters: CEREP off-target panel, radioligand binding, inhibition of control specific binding; settings: read-out: % Inhibition of Control Specific Binding, Mean
T12 construct: gene CHRM1; antagonist radioligand
T12 sequence (P11229 whole entry): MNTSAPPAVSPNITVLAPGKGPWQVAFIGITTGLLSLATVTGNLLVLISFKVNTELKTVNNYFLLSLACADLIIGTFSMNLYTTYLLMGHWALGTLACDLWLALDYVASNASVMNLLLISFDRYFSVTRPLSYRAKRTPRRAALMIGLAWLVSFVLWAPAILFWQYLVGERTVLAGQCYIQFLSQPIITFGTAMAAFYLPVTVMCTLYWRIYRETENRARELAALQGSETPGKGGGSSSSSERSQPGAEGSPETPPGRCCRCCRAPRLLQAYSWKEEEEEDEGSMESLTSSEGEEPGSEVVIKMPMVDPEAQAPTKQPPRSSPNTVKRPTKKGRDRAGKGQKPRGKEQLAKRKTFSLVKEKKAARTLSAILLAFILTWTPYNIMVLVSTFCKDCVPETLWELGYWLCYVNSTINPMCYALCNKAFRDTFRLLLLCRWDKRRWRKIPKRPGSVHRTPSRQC

[12] = molecular target: T13, M3(h) (antagonist radioligand) (Homo sapiens, UniProt P20309); assay: biochemical; parameters: CEREP off-target panel, radioligand binding, inhibition of control specific binding; settings: read-out: % Inhibition of Control Specific Binding, Mean
T13 construct: gene CHRM3; antagonist radioligand

[13] = molecular target: T14, N neuronal α4β2 (h) (agonist radioligand) (Homo sapiens, UniProt P17787+P43681); assay: biochemical; parameters: CEREP off-target panel, radioligand binding, inhibition of control specific binding; settings: read-out: % Inhibition of Control Specific Binding, Mean
T14 construct: gene CHRNB2; agonist radioligand

[14] = molecular target: T15, V1a(h) (agonist radioligand) (Homo sapiens, UniProt P37288); assay: biochemical; parameters: CEREP off-target panel, radioligand binding, inhibition of control specific binding; settings: read-out: % Inhibition of Control Specific Binding, Mean
T15 construct: gene AVPR1A; agonist radioligand

[15] = molecular target: T16, kappa (h) (KOP) (agonist radioligand) (Homo sapiens, UniProt P41145); assay: biochemical; parameters: CEREP off-target panel, radioligand binding, inhibition of control specific binding; settings: read-out: % Inhibition of Control Specific Binding, Mean
T16 construct: gene OPRK1; agonist radioligand
T16 sequence (P41145 whole entry): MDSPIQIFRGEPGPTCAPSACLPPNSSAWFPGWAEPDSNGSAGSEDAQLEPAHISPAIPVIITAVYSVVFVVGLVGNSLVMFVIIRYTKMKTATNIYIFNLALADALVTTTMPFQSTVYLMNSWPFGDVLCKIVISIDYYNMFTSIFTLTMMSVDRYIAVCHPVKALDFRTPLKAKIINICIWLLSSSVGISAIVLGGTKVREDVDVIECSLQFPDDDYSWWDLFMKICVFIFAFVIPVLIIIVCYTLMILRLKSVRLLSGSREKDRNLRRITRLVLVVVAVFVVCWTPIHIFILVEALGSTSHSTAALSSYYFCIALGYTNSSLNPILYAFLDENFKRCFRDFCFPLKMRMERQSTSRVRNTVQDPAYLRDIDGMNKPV

[16] = molecular target: T17, δ (DOP) (h) (agonist radioligand) (Homo sapiens, UniProt P41143); assay: biochemical; parameters: CEREP off-target panel, radioligand binding, inhibition of control specific binding; settings: read-out: % Inhibition of Control Specific Binding, Mean
T17 construct: gene OPRD1; agonist radioligand

[17] = molecular target: T18, μ (MOP) (h) (agonist radioligand) (Homo sapiens, UniProt P35372); assay: biochemical; parameters: CEREP off-target panel, radioligand binding, inhibition of control specific binding; settings: read-out: % Inhibition of Control Specific Binding, Mean
T18 construct: gene OPRM1; agonist radioligand
T18 sequence (P35372 whole entry): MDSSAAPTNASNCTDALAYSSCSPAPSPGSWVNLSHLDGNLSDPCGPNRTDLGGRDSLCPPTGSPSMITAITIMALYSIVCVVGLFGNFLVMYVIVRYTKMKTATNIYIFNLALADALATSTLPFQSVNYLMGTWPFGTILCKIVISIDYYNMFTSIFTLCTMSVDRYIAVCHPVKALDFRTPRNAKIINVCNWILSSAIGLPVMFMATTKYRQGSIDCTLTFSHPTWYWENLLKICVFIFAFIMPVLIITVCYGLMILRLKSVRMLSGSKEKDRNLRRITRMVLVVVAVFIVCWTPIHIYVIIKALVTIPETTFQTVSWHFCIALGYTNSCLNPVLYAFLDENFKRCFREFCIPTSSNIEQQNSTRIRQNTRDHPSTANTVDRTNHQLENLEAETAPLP

COX1(h) = molecular target: T19, COX1(h) (Homo sapiens, UniProt P23219); assay: biochemical; parameters: CEREP off-target panel, enzyme inhibition; settings: read-out: % Inhibition, Mean (enzymes)
T19 construct: gene PTGS1
T19 sequence (P23219 whole entry): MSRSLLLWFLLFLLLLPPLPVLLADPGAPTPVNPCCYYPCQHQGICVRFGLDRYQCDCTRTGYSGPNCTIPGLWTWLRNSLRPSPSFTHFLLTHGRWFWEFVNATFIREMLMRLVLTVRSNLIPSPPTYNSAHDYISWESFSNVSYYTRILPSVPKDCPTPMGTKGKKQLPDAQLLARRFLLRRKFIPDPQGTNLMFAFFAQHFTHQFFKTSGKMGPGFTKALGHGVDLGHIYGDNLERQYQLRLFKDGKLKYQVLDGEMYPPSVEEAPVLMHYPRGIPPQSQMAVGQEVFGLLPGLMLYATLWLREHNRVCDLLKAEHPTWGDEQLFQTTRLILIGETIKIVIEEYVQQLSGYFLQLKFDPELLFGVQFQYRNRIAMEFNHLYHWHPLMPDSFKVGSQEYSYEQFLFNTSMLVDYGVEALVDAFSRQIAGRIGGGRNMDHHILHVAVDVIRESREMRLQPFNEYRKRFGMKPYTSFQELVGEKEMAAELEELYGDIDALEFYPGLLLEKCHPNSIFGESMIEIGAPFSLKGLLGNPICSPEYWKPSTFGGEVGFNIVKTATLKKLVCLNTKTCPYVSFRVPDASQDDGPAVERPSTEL

COX2(h) = molecular target: T20, COX2(h) (Homo sapiens, UniProt P35354); assay: biochemical; parameters: CEREP off-target panel, enzyme inhibition; settings: read-out: % Inhibition, Mean (enzymes)
T20 construct: gene PTGS2
T20 sequence (P35354 whole entry): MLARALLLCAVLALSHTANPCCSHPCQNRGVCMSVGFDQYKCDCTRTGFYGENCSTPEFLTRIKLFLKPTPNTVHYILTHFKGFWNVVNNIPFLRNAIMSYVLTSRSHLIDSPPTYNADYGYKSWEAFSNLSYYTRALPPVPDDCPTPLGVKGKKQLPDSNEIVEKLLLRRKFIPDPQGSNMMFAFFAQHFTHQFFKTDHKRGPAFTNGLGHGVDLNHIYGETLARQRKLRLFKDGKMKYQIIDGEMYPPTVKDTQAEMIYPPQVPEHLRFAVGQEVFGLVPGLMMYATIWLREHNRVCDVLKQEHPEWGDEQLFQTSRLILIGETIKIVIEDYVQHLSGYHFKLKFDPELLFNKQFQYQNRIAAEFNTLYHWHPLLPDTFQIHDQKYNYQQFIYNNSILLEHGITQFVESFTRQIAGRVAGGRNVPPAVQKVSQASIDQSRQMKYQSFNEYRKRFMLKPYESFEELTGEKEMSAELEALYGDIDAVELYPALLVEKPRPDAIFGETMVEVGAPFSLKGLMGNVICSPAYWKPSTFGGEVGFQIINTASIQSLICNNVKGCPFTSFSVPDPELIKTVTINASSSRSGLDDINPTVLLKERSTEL

Lck kinase (h) = Lck kinase (h) (Homo sapiens, UniProt P06239); assay: biochemical; parameters: CEREP off-target panel, enzyme inhibition; settings: read-out: % Inhibition, Mean (enzymes)
PDE3A (h) = PDE3A (h) (Homo sapiens, UniProt Q14432); assay: biochemical; parameters: CEREP off-target panel, enzyme inhibition; settings: read-out: % Inhibition, Mean (enzymes)
PDE4D2 (h) = molecular target: T21, PDE4D2 (h) (Homo sapiens, UniProt Q08499); assay: biochemical; parameters: CEREP off-target panel, enzyme inhibition; settings: read-out: % Inhibition, Mean (enzymes)
T21 construct: gene PDE4D; isoform PDE4D2

acetylcholinesterase (h) = molecular target: T22, acetylcholinesterase (h) (Homo sapiens, UniProt P22303); assay: biochemical; parameters: CEREP off-target panel, enzyme inhibition; settings: read-out: % Inhibition, Mean (enzymes)
T22 construct: gene ACHE

T1 sequence (Q99685 whole entry K36A/L169S/L176S): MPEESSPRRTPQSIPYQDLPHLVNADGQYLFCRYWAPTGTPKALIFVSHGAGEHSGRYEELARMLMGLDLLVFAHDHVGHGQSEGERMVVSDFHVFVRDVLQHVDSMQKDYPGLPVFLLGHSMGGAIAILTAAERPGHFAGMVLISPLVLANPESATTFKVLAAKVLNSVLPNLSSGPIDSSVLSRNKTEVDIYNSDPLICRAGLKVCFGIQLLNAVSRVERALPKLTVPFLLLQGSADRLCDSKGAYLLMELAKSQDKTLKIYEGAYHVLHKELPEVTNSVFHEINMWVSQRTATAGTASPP

Q: What does the source list for `CCC(F)(F)C(=O)C[S+]([O-])c1ccc(C(=O)N2CCN(c3cccc(Cl)c3)[C@@H](C)[C@@H]2C)cc1Cl` (mixture of isomers) [compound 3, LEI-515]?
A: X-ray co-crystal structure (crystal soaking), 1.55 Å [1]: LEI-515 was covalently attached to the catalytic Ser122 residue through its electrophilic carbonyl group as a deprotonated hemiketal; inhibition at 10 µM (5-HT transporter (h)): 4.2%; inhibition at 10 µM [2]: 5.8%; inhibition at 10 µM [3]: 10.6%; inhibition at 10 µM [4]: 11.7%; inhibition at 10 µM [5]: -7%; inhibition at 10 µM [6]: -11.9%; inhibition at 10 µM [7]: 19.5%; inhibition at 10 µM [8]: 6.2%; inhibition at 10 µM [9]: 2.2%; inhibition at 10 µM [10]: -8%; inhibition at 10 µM [11]: -29.5%; inhibition at 10 µM [12]: -19.9%; inhibition at 10 µM [13]: -10.5%; inhibition at 10 µM [14]: 9.9%; inhibition at 1 µM [15]: 21.7%; inhibition at 10 µM [15]: 59.5%; inhibition at 10 µM [16]: 48.3%; inhibition at 10 µM [17]: 20.4%; inhibition at 10 µM (COX1(h)): 5.4%; inhibition at 10 µM (COX2(h)): 9.5%; inhibition at 10 µM (Lck kinase (h)): -5.3%; inhibition at 10 µM (PDE3A (h)): -27.2%; inhibition at 10 µM (PDE4D2 (h)): -16.6%; inhibition at 10 µM (acetylcholinesterase (h)): 4.9%
